Results reported in patent US12528761B2, “Thyromimetics” (Autobahn Therapeutics, Inc., priority 2020, dated 2026).

Key:
TRβ = target: T1, TRβ (Homo sapiens, UniProt P10828); test: TR reporter-gene assay (Gal4 DBD hybrid, luciferase), TRβ; type: cell-based; details: for EC50: HEK293-derived reporter cells, 24 hr treatment, read-out: TRβ EC50; for T3-SI (selectivity index, EC50 (TRα)/EC50 (TRβ)): class symbols
T1 construct: expressed in transfected cells; host or cells: HEK293
T1 sequence (P10828 217-461 limits assumed): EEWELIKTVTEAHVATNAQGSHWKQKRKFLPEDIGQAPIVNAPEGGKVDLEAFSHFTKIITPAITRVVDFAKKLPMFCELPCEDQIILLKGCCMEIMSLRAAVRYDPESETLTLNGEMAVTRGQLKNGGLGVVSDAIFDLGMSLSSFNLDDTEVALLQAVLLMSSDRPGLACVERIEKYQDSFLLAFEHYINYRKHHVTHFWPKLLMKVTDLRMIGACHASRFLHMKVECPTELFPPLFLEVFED
Method in brief: (§1)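 HEK293 reporter cells expressing Gal4-DBD/TR ligand-binding hybrids driving firefly luciferase from a Gal4 UAS; cells pre-incubated 6 h, then treated 24 h at 37 °C in medium with 10% charcoal-stripped FBS (final DMSO 0.1–0.4%), in duplicate. Read-out was luminescence (RLU).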

TRα = target: T2, TRα (Homo sapiens, UniProt P10827); test: TR reporter-gene assay (Gal4 DBD hybrid, luciferase), TRα; type: cell-based; details: HEK293-derived reporter cells, 24 hr treatment; read-out: TRα EC50
T2 construct: expressed in transfected cells; host or cells: HEK293
T2 sequence (P10827 1-410 isoform P10827-2): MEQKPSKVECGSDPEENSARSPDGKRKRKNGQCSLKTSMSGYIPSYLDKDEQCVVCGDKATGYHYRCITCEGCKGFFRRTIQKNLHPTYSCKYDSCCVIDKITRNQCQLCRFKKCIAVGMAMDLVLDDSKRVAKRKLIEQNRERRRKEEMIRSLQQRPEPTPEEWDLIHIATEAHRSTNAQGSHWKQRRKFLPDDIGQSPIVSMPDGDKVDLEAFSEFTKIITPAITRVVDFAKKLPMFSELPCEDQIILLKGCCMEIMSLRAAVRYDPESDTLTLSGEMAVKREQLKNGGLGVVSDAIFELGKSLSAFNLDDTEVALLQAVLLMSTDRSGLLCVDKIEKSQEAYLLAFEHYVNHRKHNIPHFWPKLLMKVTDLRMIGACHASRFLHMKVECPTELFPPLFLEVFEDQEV
Method in brief: as §1

Row | Compound | EC50 (TRβ) [nM] | T3-SI (selectivity index, EC50 (TRα)/EC50 (TRβ)) (TRβ) | EC50 (TRα) [nM]
1 | Cc1c(F)c(SCC(=O)O)cc(Cl)c1Cc1ccc(O)c(C(C)C)c1 [Compound 227, 2-((5-chloro-2-fluoro-4-(4-hydroxy-3-isopropylbenzyl)-3-methylphenyl)thio)acetic acid] | 100 to 1000 | ++ (3× < T3-SI ≤ 30×) | 100 to 1000
2 | CC(C)c1cc(Cc2c(Cl)cc(CS(=O)(=O)CC(=O)O)cc2Cl)ccc1O [Compound 97, 2-((3,5-dichloro-4-(4-hydroxy-3-isopropylbenzyl)benzyl)sulfonyl)acetic acid] | > 1000 | ++ (3× < T3-SI ≤ 30×) | > 1000
3 | CC(C)c1cc(Cc2c(Cl)cc(SCC(=O)O)c(F)c2Cl)ccc1O [Compound 204, 2-((3,5-dichloro-2-fluoro-4-(4-hydroxy-3-isopropylbenzyl)phenyl)thio)acetic acid] | 10 to 100 | ++ (3× < T3-SI ≤ 30×) | 10 to 100
4 | Cc1cc(NCC(=O)O)c(F)c(Cl)c1Cc1ccc(O)c(C(C)C)c1 [Compound 222, (3-chloro-2-fluoro-4-(4-hydroxy-3-isopropylbenzyl)-5-methylphenyl)glycine] | 10 to 100 | ++ (3× < T3-SI ≤ 30×) | 10 to 100
5 | CC(C)c1cc(Cc2c(Cl)cc(CC(=O)O)cc2Cl)ccc1O [Compound 6, 2-(3,5-dichloro-4-(4-hydroxy-3-isopropylbenzyl)phenyl)acetic acid] | 100 to 1000 | ++ (3× < T3-SI ≤ 30×) | 100 to 1000
6 | CC(C)c1cc(Cc2c(Cl)cc(CC3NC(=O)NC3=O)cc2Cl)ccc1O (stereo not drawn) [Compound 144, 5-(3,5-dichloro-4-(4-hydroxy-3-isopropylbenzyl)benzyl)imidazolidine-2,4-dione] | > 1000 | + (T3-SI ≤ 3×) | 100 to 1000
7 | CC(C)c1c(O)ccc(Cc2c(Cl)cc(OCCCCC(=O)O)cc2Cl)c1F [Compound 54, 5-(3,5-dichloro-4-(2-fluoro-4-hydroxy-3-isopropylbenzyl)phenoxy)pentanoic acid] | 10 to 100 | + (T3-SI ≤ 3×) | 10 to 100
8 | CC(C)c1cc(Cc2c(Cl)cc(SCC(=O)O)cc2Cl)ccc1O [Compound 91, 2-((3,5-dichloro-4-(4-hydroxy-3-isopropylbenzyl)phenyl)thio)acetic acid] | 100 to 1000 | ++ (3× < T3-SI ≤ 30×) | 100 to 1000
9 | CC(c1ccc(F)cc1)c1c(O)ccc(Cc2c(Cl)cc(NC(=O)CC(=O)O)cc2Cl)c1F (stereo not drawn) [Compound 56, 3-((3,5-dichloro-4-(2-fluoro-3-(1-(4-fluorophenyl)ethyl)-4-hydroxybenzyl)phenyl)amino)-3-oxopropanoic acid] | 10 to 100 | ++ (3× < T3-SI ≤ 30×) | 100 to 1000
10 | Cc1cc(CSCC(=O)O)cc(Cl)c1Cc1ccc(O)c(C(C)C)c1 [Compound 124, 2-((3-chloro-4-(4-hydroxy-3-isopropylbenzyl)-5-methylbenzyl)thio)acetic acid] | 10 to 100 | ++ (3× < T3-SI ≤ 30×) | 10 to 100
11 | CC(C)c1cc(Cc2c(Cl)cc(NC(=O)CC(=O)O)cc2Cl)ccc1O [Compound 22, 3-((3,5-dichloro-4-(4-hydroxy-3-isopropylbenzyl)phenyl)amino)-3-oxopropanoic acid] | 100 to 1000 | ++ (3× < T3-SI ≤ 30×) | 100 to 1000
12 | Cc1cc(CCC(=O)O)cc(Cl)c1Cc1ccc(O)c(C(C)C)c1F [Compound 249, 3-(3-chloro-4-(2-fluoro-4-hydroxy-3-isopropylbenzyl)-5-methylphenyl)propanoic acid] | 10 to 100 | ++ (3× < T3-SI ≤ 30×) | 10 to 100
13 | CCOC(=O)/C(=C\c1cc(Cl)c(Cc2ccc(O)c(C(C)C)c2)c(Cl)c1)C(=O)O [Compound 90, 3-(3,5-dichloro-4-(4-hydroxy-3-isopropylbenzyl)phenyl)-2-(ethoxycarbonyl)acrylic acid] | > 1000 | ++ (3× < T3-SI ≤ 30×) | > 1000
14 | C/C(=C\c1cc(C)c(Cc2ccc(O)c(C(C)C)c2F)c(Cl)c1)C(=O)O [Compound 248, (E)-3-(3-chloro-4-(2-fluoro-4-hydroxy-3-isopropylbenzyl)-5-methylphenyl)-2-methylacrylic acid] | 10 to 100 | + (T3-SI ≤ 3×) | 10 to 100
15 | CC(C)c1c(O)ccc(Cc2c(Cl)cc(OCCCC(=O)O)cc2Cl)c1F [Compound 52, 4-(3,5-dichloro-4-(2-fluoro-4-hydroxy-3-isopropylbenzyl)phenoxy)butanoic acid] | 100 to 1000 | + (T3-SI ≤ 3×) | 100 to 1000
16 | CC(C)c1cc(Cc2c(Cl)cc([S+]([O-])CC(=O)O)cc2Cl)ccc1O (stereo not drawn) [Compound 92, 2-((3,5-dichloro-4-(4-hydroxy-3-isopropylbenzyl)phenyl)sulfinyl)acetic acid] | > 1000 | +++ (T3-SI > 30×) | > 1000
17 | CC(Oc1cc(Cl)c(Cc2ccc(O)c(C(C)C)c2F)c(Cl)c1)C(=O)O (stereo not drawn) [Compound 58, 2-(3,5-dichloro-4-(2-fluoro-4-hydroxy-3-isopropylbenzyl)phenoxy)propanoic acid] | 10 to 100 | ++ (3× < T3-SI ≤ 30×) | 100 to 1000
18 | CC(c1ccc(F)cc1)c1c(O)ccc(Cc2c(Cl)cc(CCC(=O)O)cc2Cl)c1F (stereo not drawn) [Compound 18, 3-(3,5-dichloro-4-(2-fluoro-3-(1-(4-fluorophenyl)ethyl)-4-hydroxybenzyl)phenyl)propanoic acid] | 10 to 100 | + (T3-SI ≤ 3×) | 10 to 100
